Measured values from patent US8426447B2, “Spiro-tricyclic ring compounds as beta-secretase modulators and methods of use” (Amgen Inc., priority 2008, dated 2013).

Columns and labels:
BACE1 [1] = target: T1, BACE1 (Homo sapiens, UniProt P56817); test: In Vitro BACE Cell-based Assay (HEK cell assay): Aβ40 in conditioned medium of cells stably expressing Amyloid Precursor Protein, sandwich ELISA
In short: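 HEK cells stably expressing APP were treated 24 h with compound in 10-point dose response starting at 100 or 10 μM (0.1% DMSO). Secreted Aβ40 quantified by sandwich ELISA (pAb40 capture, biotinylated 6E10 detection, europium time-resolved fluorescence), with IC50 derived from percent inhibition versus concentration.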

BACE1 [2] = target: T1, BACE1; test: In Vitro Enzymatic BACE FRET (Fluorescence Resonance Energy Transfer) Assay; type: biochemical
In short: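 Fluorescence read-out after Tris addition raises pH to neutrality and ends the reaction. Before that, a peptide substrate carrying fluorophore and quencher across the BACE cleavage site (50 nM) is incubated with enzyme for one hour at pH 4.2 in acetate containing 10% DMSO and sub-micellar genapol.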

[3] = HEK cells, read-out: HEK cell assay
[4] = Table IV, class symbols, read-out: HEK cell assay
[5] = Table IV, class symbols, read-out: BACE1 FRET assay

T1 sequence (P56817 46-501, species assumed): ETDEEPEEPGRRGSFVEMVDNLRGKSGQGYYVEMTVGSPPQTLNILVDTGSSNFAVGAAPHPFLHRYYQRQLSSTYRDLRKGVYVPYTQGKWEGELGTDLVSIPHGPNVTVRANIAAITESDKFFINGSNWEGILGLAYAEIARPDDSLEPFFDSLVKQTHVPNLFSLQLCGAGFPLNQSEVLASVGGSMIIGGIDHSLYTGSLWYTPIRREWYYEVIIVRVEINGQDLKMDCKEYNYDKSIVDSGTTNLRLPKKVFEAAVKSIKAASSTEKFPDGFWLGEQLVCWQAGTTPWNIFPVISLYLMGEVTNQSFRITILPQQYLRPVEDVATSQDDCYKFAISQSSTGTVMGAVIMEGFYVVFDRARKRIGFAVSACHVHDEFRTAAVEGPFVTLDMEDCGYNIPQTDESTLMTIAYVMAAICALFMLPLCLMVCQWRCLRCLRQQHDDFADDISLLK

IC50 (BACE1 [1]; [3]) | IC50 (BACE1 [2]; read-out: BACE1 FRET assay) | IC50 (BACE1 [1]; [4]) | IC50 (BACE1 [2]; [5]) | Compound | other results
1 to 5 µM | > 5 µM |  |  | Cc1ccc(-n2ccc3c(c2=O)[C@@]2(COC(N)=N2)c2cc(-c4cccnc4)ccc2O3)cc1 [compound 503] | 
0.1 to 1 µM | 0.1 to 1 µM |  |  | Cc1ccc(-n2ccc3c(c2=O)[C@]2(COC(N)=N2)c2cc(-c4cccnc4)ccc2O3)cc1 [compound 504] | 
< 0.1 µM | < 0.1 µM |  |  | CC1(C)CN(c2cc(F)c3c(c2)[C@]2(COC(N)=N2)c2cc(-c4cncnc4)ccc2O3)CCO1 [compound 505] | 
1 to 5 µM | 0.1 to 1 µM |  |  | CC1(C)CN(c2cc(F)c3c(c2)[C@@]2(COC(N)=N2)c2cc(-c4cncnc4)ccc2O3)CCO1 [compound 506] | 
< 0.1 µM | < 0.1 µM |  |  | NC1=N[C@@]2(CO1)c1cc(-c3cncnc3)ccc1Oc1c(F)cc(OCC3CC3(F)F)cc12 (some centres unmarked) [compound 507] | 
< 0.1 µM | < 0.1 µM |  |  | NC1=N[C@@]2(CO1)c1cc(-c3cncnc3)ccc1Oc1ccc(N3CC(F)(F)C3)cc12 [compound 508] | 
< 0.1 µM | < 0.1 µM |  |  | Cn1cc(-c2cc(F)c3c(c2)[C@]2(COC(N)=N2)c2cc(-c4cccnc4)ccc2O3)cn1 [compound 509, (4S)-4′-fluoro-2′-(1-methyl-1H-pyrazol-4-yl)-7′-(3-pyridinyl)spiro[1,3-oxazole-4,9′-xanthen]-2-amine] | 
1 to 5 µM | 1 to 5 µM |  |  | CC(C)(C)OC(=O)n1cccc1-c1ccc2c(c1)[C@@]1(COC(N)=N1)c1cccc(F)c1O2 [compound 510] | 
< 0.1 µM | < 0.1 µM |  |  | Cn1cc(-c2cc(F)c3c(c2)[C@]2(COC(N)=N2)c2cc(-c4cncnc4)ccc2O3)cn1 [compound 511] | 
< 0.1 µM | < 0.1 µM |  |  | CC(C)(C)C#Cc1cc2c(cn1)Oc1ccc(-c3cncnc3)cc1[C@@]21COC(N)=N1 [compound 512, (5S)-3-(3,3-dimethyl-1-butyn-1-yl)-7-(5-pyrimidinyl)spiro[chromeno[2,3-c]pyridine-5,4′-[1,3]oxazol]-2′-amine] | 
< 0.1 µM | < 0.1 µM |  |  | CC(C)(C)/C=C/c1cc2c(cn1)Oc1ccc(-c3cccnc3F)cc1[C@@]21COC(N)=N1 [compound 514] | 
 |  |  |  | NC1=N[C@@]2(CO1)c1cc(-c3cccnc3F)ccc1Oc1cnc(-c3ccccn3)cc12 [compound 516] | IC50 (BACE1 [1]; HEK cell assay (uM), HEK cells): < 0.1 µM; IC50 (BACE1 [2]; BACE1 FRET assay (uM)): < 0.1 µM
< 0.1 µM | < 0.1 µM |  |  | NC1=N[C@@]2(CO1)c1cc(C(=O)NC3CC3)ccc1Oc1ccc(-c3ccccc3)cc12 [compound 518] | 
< 0.1 µM | < 0.1 µM |  |  | CC1(C#Cc2cnc3c(c2)[C@]2(COC(N)=N2)c2cc(-c4cc(F)ccc4F)ccc2O3)COC1 [compound 519] | 
< 0.1 µM | < 0.1 µM |  |  | CC1(C#Cc2cnc3c(c2)[C@]2(COC(N)=N2)c2cc(-c4ccccc4F)ccc2O3)COC1 [compound 520] | 
< 0.1 µM | < 0.1 µM |  |  | CC1(C#Cc2cnc3c(c2)[C@]2(COC(N)=N2)c2cc(-c4cc(Cl)ccc4F)ccc2O3)COC1 [compound 521, (5S)-7-(5-chloro-2-fluorophenyl)-3-((3-methyl-3-oxetanyl)ethynyl)spiro[chromeno[2,3-b]pyridine-5,4′-[1,3]oxazol]-2′-amine] | 
< 0.1 µM | < 0.1 µM |  |  | CC(C)(C)COc1ccc2c(c1)C1(COC(N)=N1)c1cc(NC(=O)c3ccc(Cl)cn3)ccc1O2 (centres unmarked) [compound 522] | 
1 to 5 µM | 1 to 5 µM |  |  | N#Cc1ccc(-n2ccc3c(c2=O)[C@@]2(COC(N)=N2)c2cc(-c4cccnc4)ccc2O3)cc1 [compound 523] | 
< 0.1 µM | < 0.1 µM |  |  | CC1(C)CC(c2cc3c(cc2F)Oc2ccc(-c4cncnc4)cc2[C@@]32COC(N)=N2)=CC(=O)O1 [compound 524] | 
> 5 µM | > 5 µM |  |  | NC1=N[C@@]2(CO1)c1cc(-c3cncnc3)ccc1Oc1cccnc12 [compound 525] | 

IC50 (BACE1 [1]; [3]) | IC50 (BACE1 [2]; read-out: BACE1 FRET assay) | IC50 (BACE1 [1]; [4]) | IC50 (BACE1 [2]; [5]) | Compound | other results
0.1 to 1 µM | 0.1 to 1 µM |  |  | CC(C)(C)C#Cc1ccc2c(n1)[C@]1(COC(N)=N1)c1cc(-c3cncnc3)ccc1O2 [compound 526] | 
0.1 to 1 µM | 0.1 to 1 µM |  |  | NC1=N[C@]2(CO1)c1cc(-c3cncnc3)ccc1Oc1cccnc12 [compound 527] | 
< 0.1 µM | < 0.1 µM |  |  | CC(C)(C)C#Cc1ccc2c(n1)[C@@]1(COC(N)=N1)c1cc(-c3cncnc3)ccc1O2 [compound 528] | 
< 0.1 µM | < 0.1 µM |  |  | NC1=N[C@]2(CO1)c1cc(C3=CCOCC3)ccc1Oc1cc(F)c(-c3cncnc3)cc12 [compound 529] | 
< 0.1 µM | < 0.1 µM |  |  | CC(C)(F)COc1cc2c(cc1F)Oc1ccc(-c3cncnc3)cc1[C@@]21COC(N)=N1 [compound 530] | 
 |  | 0.1 to 1 µM | < 0.1 µM | NC1=NC2(CO1)c1cc(-c3ccccc3)ccc1Oc1ccc(-c3ccccc3)cc12 [compound 532] | 
 |  | < 0.1 µM | < 0.1 µM | COCC(=O)Nc1ccc2c(c1)[C@@]1(COC(N)=N1)c1cc(-c3ccccc3)ccc1O2 [compound 533] | 
 |  | > 5 µM | 1 to 5 µM | COc1ccc2c(c1)[C@]1(COC(N)=N1)c1cc(NC(=O)c3cc(Cl)ccn3)ccc1O2 [compound 534] | 
 |  | 1 to 5 µM | 1 to 5 µM | COc1ccc2c(c1)[C@]1(COC(N)=N1)c1cc(NC(=O)[C@H](C)OC)ccc1O2 [compound 535] | 
 |  | 0.1 to 1 µM | 0.1 to 1 µM | COc1ccc2c(c1)[C@]1(COC(N)=N1)c1cc(NC(=O)[C@@H](C)OC)ccc1O2 [compound 536] | 
 |  | 0.1 to 1 µM | < 0.1 µM | CC(C)(C)C#Cc1cnc2c(c1)[C@]1(COC(N)=N1)c1cc(-c3cncnc3)cc(F)c1O2 [compound 537] | 
 |  | 0.1 to 1 µM | 0.1 to 1 µM | CC(C)(C)C#Cc1cnc2c(c1)[C@@]1(COC(N)=N1)c1cc(-c3cncnc3)cc(F)c1O2 [compound 538] | 
 |  | < 0.1 µM | < 0.1 µM | NC1=N[C@@]2(CO1)c1cc(-c3cccnc3)ccc1Oc1ncc(N3CCOCC3)cc12 [compound 539] | 
 |  | 1 to 5 µM | > 5 µM | COc1ccc2c(c1)[C@]1(COC(N)=N1)c1cc(OC)cnc1O2 [compound 541] | 
 |  | > 5 µM | 1 to 5 µM | COc1cnc2c(c1)[C@]1(COC(N)=N1)c1cc(Br)ccc1O2 [compound 542] | 
 |  | > 5 µM | > 5 µM | COc1cnc2c(c1)[C@@]1(COC(N)=N1)c1cc(Br)ccc1O2 [compound 543] | 
 |  | < 0.1 µM | < 0.1 µM | COC(C)(C)COc1cc2c(cc1F)Oc1ccc(-c3cccnc3)cc1[C@@]21COC(N)=N1 [compound 544] | 
 |  | < 0.1 µM | < 0.1 µM | NC1=N[C@@]2(CO1)c1cc(-c3cncnc3)ccc1Oc1cnc(-c3ccccc3)cc12 [compound 546] | 
 |  | < 0.1 µM | < 0.1 µM | CC(C)(C#N)COc1cc2c(cc1F)Oc1ccc(-c3cccnc3)cc1[C@@]21COC(N)=N1 [compound 547] | 
 |  | > 5 µM | > 5 µM | NC1=N[C@@]2(CO1)c1cc(Br)ccc1Oc1cnc(Cl)cc12 [compound 548] | 

IC50 (BACE1 [1]; [3]) | IC50 (BACE1 [2]; read-out: BACE1 FRET assay) | IC50 (BACE1 [1]; [4]) | IC50 (BACE1 [2]; [5]) | Compound | other results
 |  | > 5 µM | > 5 µM | NC1=N[C@]2(CO1)c1cc(Br)ccc1Oc1cnc(Cl)cc12 [compound 549] | 
 |  | 0.1 to 1 µM | < 0.1 µM | NC1=N[C@@]2(CO1)c1cc(-c3cccnc3F)ccc1Oc1cnc(-c3cccnc3F)cc12 [compound 550] | 
 |  | 0.1 to 1 µM | 0.1 to 1 µM | NC1=N[C@@]2(CO1)c1cc(-c3cccnc3F)ccc1Oc1cnc(Cl)cc12 [compound 551] | 
 |  | > 5 µM | > 5 µM | NC1=N[C@]2(CO1)c1cc(-c3cncnc3)ccc1Oc1c(F)cccc12 [compound 552] | 
 |  | 0.1 to 1 µM | < 0.1 µM | NC1=N[C@@]2(CO1)c1cc(-c3cncnc3)ccc1Oc1c(F)cccc12 [compound 553] | 
 |  | < 0.1 µM | 0.1 to 1 µM | Cn1cnc(-c2ccc3c(c2)[C@]2(COC(N)=N2)c2cc(-c4cccnc4)ccc2O3)c1 [compound 554] | 
 |  | 0.1 to 1 µM | 0.1 to 1 µM | NC1=N[C@@]2(CO1)c1cnccc1Oc1ccc(-c3cccnc3)cc12 [compound 556] | 
 |  | 1 to 5 µM | > 5 µM | NC1=N[C@]2(CO1)c1cnccc1Oc1ccc(-c3cccnc3)cc12 [compound 557] | 
 |  | > 5 µM | 1 to 5 µM | NC1=N[C@@]2(CO1)c1cc(Br)ccc1Oc1c(F)cccc12 [compound 558] | 
 |  | > 5 µM | > 5 µM | NC1=N[C@]2(CO1)c1cc(Br)ccc1Oc1c(F)cccc12 [compound 559] | 
 |  | < 0.1 µM | < 0.1 µM | CC1(C)CN(c2ccc3c(c2)[C@]2(COC(N)=N2)c2cc(-c4cncnc4)ccc2O3)C1 [compound 561] | 
 |  | < 0.1 µM | < 0.1 µM | NC1=N[C@@]2(CO1)c1cc(-c3cccnc3)ccc1Oc1ccc(N3C[C@@H]4C[C@H]3CO4)cc12 [compound 564] | 
 |  | 0.1 to 1 µM | < 0.1 µM | Cc1cc(-c2ccc3c(c2)[C@]2(COC(N)=N2)c2cc(-c4ccc(F)nc4)ccc2O3)on1 [compound 565] | 
 |  | 0.1 to 1 µM | 0.1 to 1 µM | Cc1ccc(-n2ccc3c(c2=O)[C@@]2(COC(N)=N2)c2cc(-c4cccnc4)ccc2O3)cc1 [compound 566] | 
 |  | > 5 µM | 1 to 5 µM | NC1=N[C@]2(CO1)c1ccccc1Oc1ccc(-c3cc4ccccc4[nH]3)cc12 [compound 567] | 
 |  | > 5 µM | > 5 µM | CC(C)(C)OC(=O)n1c(-c2ccc3c(c2)[C@@]2(COC(N)=N2)c2ccccc2O3)cc2ccccc21 [compound 568] | 
 |  | 0.1 to 1 µM | 0.1 to 1 µM | NC1=N[C@]2(CO1)c1ccccc1Oc1cc(F)c(-c3cccnc3)cc12 [compound 569] | 
 |  | 0.1 to 1 µM | < 0.1 µM | NC1=N[C@@]2(CO1)c1cc(-c3cccnc3F)ccc1Oc1ncccc12 [compound 570] | 
